Columns and labels:
[1] = tested on: barley; experiment: Test B preemergence/postemergence greenhouse plant response rating 0 to 10; format: in vivo, Hordeum vulgare; settings: 0 to 10 scale
Method in brief: (§1)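 Postemergence treatment of plants two to eighteen cm tall ran alongside preemergence treatment of planted seed, each using compound in a non-phytotoxic solvent.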

[2] = tested on: bedstraw; experiment: as above; format: in vivo, Galium aparine; settings: 0 to 10 scale
Method in brief: as §1

[3] = tested on: blackgrass; experiment: as above; format: in vivo, Alopecurus myosuroides; settings: 0 to 10 scale
Method in brief: as §1

[4] = tested on: cocklebur; experiment: as above; format: in vivo, Xanthium pensylvanicum; settings: 0 to 10 scale
Method in brief: as §1

[5] = tested on: crabgrass; experiment: as above; format: in vivo, Digitaria spp.; settings: 0 to 10 scale
Method in brief: as §1

[6] = tested on: lambsquarters; experiment: as above; format: in vivo, Chenopodium album; settings: 0 to 10 scale
Method in brief: as §1

[7] = tested on: rape; experiment: as above; format: in vivo, Brassica napus; settings: 0 to 10 scale
Method in brief: as §1

[8] = tested on: rice; experiment: as above; format: in vivo, Oryza sativa; settings: 0 to 10 scale
Method in brief: as §1

[9] = tested on: soybean; experiment: as above; format: in vivo, Glycine max; settings: 0 to 10 scale
Method in brief: as §1

[10] = tested on: sugar beet; experiment: as above; format: in vivo, Beta vulgaris; settings: 0 to 10 scale
Method in brief: as §1

[11] = tested on: purple nutsedge; experiment: as above; format: in vivo, Cyperus rotundus; settings: 0 to 10 scale
Method in brief: as §1

[12] = tested on: corn; experiment: Test C preemergence/postemergence greenhouse plant response rating 0 to 100; format: in vivo, Zea mays; settings: POSTEMERGENCE; for Plant response rating, Corn: 0 to 100 scale
Method in brief: (§2)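 Compounds in non-phytotoxic solvent went onto sandy loam before emergence (seeded one day earlier) or onto plants at the one-to-four leaf stage. Duck salad was treated via flood water (~2.5 cm, maintained) over silt loam.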

[13] = tested on: morningglory; experiment: as above; format: in vivo, Ipomoea hederacea; settings: POSTEMERGENCE; for Plant response rating, Morningglory: 0 to 100 scale
Method in brief: as §2

[14] = tested on: pigweed; experiment: as above; format: in vivo, Amaranthusretroflexus; settings: POSTEMERGENCE; for Plant response rating Pigweed: 0 to 100 scale
Method in brief: as §2

[15] = tested on: sorghum; experiment: as above; format: in vivo, Sorghum bicolor; settings: POSTEMERGENCE; for Plant response rating, Sorghum: 0 to 100 scale
Method in brief: as §2

[16] = tested on: rice; experiment: Test C flood test plant response rating 0 to 100; format: in vivo, Oryza sativa; settings: for Plant response rating Rice Japonica: flood test species listed under POSTEMERGENCE, 0 to 100 scale
Method in brief: (§3)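 Compounds in non-phytotoxic solvent applied preemergence to sandy loam one day after planting, postemergence at the 1–4 leaf stage, or to ~2.5 cm floodwater over silt loam.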

[17] = tested on: umbrella sedge; experiment: Test C flood test plant response rating 0 to 100; format: in vivo, Cyperus difformis; settings: for Plant response rating Umbrella sedge: flood test species listed under POSTEMERGENCE, 0 to 100 scale
Method in brief: as §3

[18] = tested on: barnyardgrass; experiment: Test C flood test plant response rating 0 to 100; format: in vivo, Echinochloa crus-galli; settings: for Plant response rating, Barnyardgrass: flood test species listed under POSTEMERGENCE, 0 to 100 scale
Method in brief: as §3

[19] = POSTEMERGENCE section, flood test, Rate 4 g/ha
[20] = Rate 16 g/ha, under POSTEMERGENCE head (flood test species)

SMILES: COC(=O)c1cc(-c2nn3c(c2Cl)CCCC3)c(F)cc1Cl [Compound 43]
- Plant response rating, Barley ([1]; POSTEMERGENCE, Rate 50 g/ha): 3
- Plant response rating, Barley ([1]; POSTEMERGENCE, Rate 200 g/ha): 3
- Plant response rating, Barley ([1]; PREEMERGENCE, Rate 50 g/ha): 0
- Plant response rating, Barley ([1]; Rate 200 g/ha, PREEMERGENCE): 0
- Plant response rating, Bedstraw ([2]; POSTEMERGENCE, Rate 50 g/ha): 10
- Plant response rating, Bedstraw ([2]; POSTEMERGENCE, Rate 200 g/ha): 10
- Plant response rating, Bedstraw ([2]; PREEMERGENCE, Rate 50 g/ha): 0
- Plant response rating, Bedstraw ([2]; Rate 200 g/ha, PREEMERGENCE): 9
- Plant response rating, Blackgrass ([3]; POSTEMERGENCE, Rate 50 g/ha): 7
- Plant response rating, Blackgrass ([3]; POSTEMERGENCE, Rate 200 g/ha): 8
- Plant response rating, Blackgrass ([3]; PREEMERGENCE, Rate 50 g/ha): 2
- Plant response rating, Blackgrass ([3]; Rate 200 g/ha, PREEMERGENCE): 5
- Plant response rating, Cocklebur ([4]; POSTEMERGENCE, Rate 50 g/ha): 8
- Plant response rating, Cocklebur ([4]; POSTEMERGENCE, Rate 200 g/ha): 10
- Plant response rating, Cocklebur ([4]; PREEMERGENCE, Rate 50 g/ha): 0
- Plant response rating, Cocklebur ([4]; Rate 200 g/ha, PREEMERGENCE): 0
- Plant response rating, Crabgrass ([5]; POSTEMERGENCE, Rate 50 g/ha): 4
- Plant response rating, Crabgrass ([5]; PREEMERGENCE, Rate 50 g/ha): 0
- Plant response rating, Crabgrass ([5]; Rate 200 g/ha, PREEMERGENCE): 0
- Plant response rating, Lambsquarter ([6]; POSTEMERGENCE, Rate 50 g/ha): 8
- Plant response rating, Lambsquarter ([6]; PREEMERGENCE, Rate 50 g/ha): 9
- Plant response rating, Lambsquarter ([6]; Rate 200 g/ha, POSTEMERGENCE): 10
- Plant response rating, Lambsquarter ([6]; Rate 200 g/ha, PREEMERGENCE): 10
- Plant response rating, Rape ([7]; POSTEMERGENCE, Rate 50 g/ha): 9
- Plant response rating, Rape ([7]; PREEMERGENCE, Rate 50 g/ha): 0
- Plant response rating, Rape ([7]; Rate 200 g/ha, POSTEMERGENCE): 10
- Plant response rating, Rape ([7]; Rate 200 g/ha, PREEMERGENCE): 9
- Plant response rating, Rice ([8]; POSTEMERGENCE, Rate 50 g/ha): 7
- Plant response rating, Rice ([8]; PREEMERGENCE, Rate 50 g/ha): 1
- Plant response rating, Rice ([8]; Rate 200 g/ha, POSTEMERGENCE): 9
- Plant response rating, Rice ([8]; Rate 200 g/ha, PREEMERGENCE): 2
- Plant response rating, Soybean ([9]; POSTEMERGENCE, Rate 50 g/ha): 8
- Plant response rating, Soybean ([9]; PREEMERGENCE, Rate 50 g/ha): 4
- Plant response rating, Soybean ([9]; Rate 200 g/ha, POSTEMERGENCE): 9
- Plant response rating, Soybean ([9]; Rate 200 g/ha, PREEMERGENCE): 3
- Plant response rating, Sugar beet ([10]; POSTEMERGENCE, Rate 50 g/ha): 10
- Plant response rating, Sugar beet ([10]; PREEMERGENCE, Rate 50 g/ha): 9
- Plant response rating, Sugar beet ([10]; Rate 200 g/ha, POSTEMERGENCE): 10
- Plant response rating, Sugar beet ([10]; Rate 200 g/ha, PREEMERGENCE): 10
- Plant response rating, Nutsedge ([11]; POSTEMERGENCE, Rate 50 g/ha): 3
- Plant response rating, Nutsedge ([11]; PREEMERGENCE, Rate 50 g/ha): 0
- Plant response rating, Nutsedge ([11]; Rate 200 g/ha, POSTEMERGENCE): 3
- Plant response rating, Nutsedge ([11]; Rate 200 g/ha, PREEMERGENCE): 0
- Plant response rating, Corn ([12]; 62 g/ha): 90
- Plant response rating, Corn ([12]; 250 g/ha): 90
- Plant response rating (0 to 100), Corn ([12]; Rate 4 g/ha): 20
- Plant response rating (0 to 100), Corn ([12]; Rate 16 g/ha): 50
- Plant response rating, Morningglory ([13]; 62 g/ha): 90
- Plant response rating, Morningglory ([13]; 250 g/ha): 100
- Plant response rating (0 to 100), Morningglory ([13]; Rate 4 g/ha): 40
- Plant response rating (0 to 100), Morningglory ([13]; Rate 16 g/ha): 60
- Plant response rating Pigweed ([14]; 62 g/ha): 100
- Plant response rating Pigweed ([14]; 250 g/ha): 100
- Plant response rating (0 to 100), Pigweed ([14]; Rate 4 g/ha): 90
- Plant response rating (0 to 100), Pigweed ([14]; Rate 16 g/ha): 100
- Plant response rating, Sorghum ([15]; 62 g/ha): 100
- Plant response rating, Sorghum ([15]; 250 g/ha): 100
- Plant response rating (0 to 100), Sorghum ([15]; Rate 4 g/ha): 40
- Plant response rating (0 to 100), Sorghum ([15]; Rate 16 g/ha): 60
- Plant response rating (0 to 100), Rice Japonica [16, 19]: 35
- Plant response rating (0 to 100), Rice Japonica [16, 20]: 60
- Plant response rating Rice Japonica ([16]; 62 g/ha): 70
- Plant response rating Rice Japonica ([16]; 250 g/ha): 75
- Plant response rating (0 to 100), Umbrella sedge [17, 19]: 0
- Plant response rating (0 to 100), Umbrella sedge [17, 20]: 0
- Plant response rating Umbrella sedge ([17]; 62 g/ha): 60
- Plant response rating Umbrella sedge ([17]; 250 g/ha): 70
- Plant response rating (0 to 100), Barnyardgrass [18, 19]: 45
- Plant response rating (0 to 100), Barnyardgrass [18, 20]: 95
- Plant response rating, Barnyardgrass ([18]; 62 g/ha): 100
- Plant response rating, Barnyardgrass ([18]; 250 g/ha): 100

From US6358885B1, “Substituted phenylheterocyclic herbicides” (Mississippi State University, priority 1992, dated 2002)
